Results taken from ChEMBL document CHEMBL3227934, “Cardioselectivity of beta-adrenoceptor blocking agents 1. 1-[(4-Hydroxyphenethyl)amino]-3-(aryloxy)propan-2-ols” (J Med Chem, 1979).

How the values were obtained:
[1] = target: Beta-1 adrenergic receptor (Rattus norvegicus) (UniProt P18090)
Description: Displacement of [3H]DHA from beta1 adrenergic receptor in rat ventricular muscle by competitive binding assay

[2] = organism: Rattus norvegicus; experiment: Cardio selectivity ratio of Kapp for beta2 adrenergic receptor in rat lung muscle to Kapp for beta1 adrenergic receptor in rat ventricular muscle
[3] = target: Beta-2 adrenergic receptor (Rattus norvegicus) (UniProt P10608)
Sequence of Beta-2 adrenergic receptor (Rattus norvegicus) (P10608 whole entry, looked up): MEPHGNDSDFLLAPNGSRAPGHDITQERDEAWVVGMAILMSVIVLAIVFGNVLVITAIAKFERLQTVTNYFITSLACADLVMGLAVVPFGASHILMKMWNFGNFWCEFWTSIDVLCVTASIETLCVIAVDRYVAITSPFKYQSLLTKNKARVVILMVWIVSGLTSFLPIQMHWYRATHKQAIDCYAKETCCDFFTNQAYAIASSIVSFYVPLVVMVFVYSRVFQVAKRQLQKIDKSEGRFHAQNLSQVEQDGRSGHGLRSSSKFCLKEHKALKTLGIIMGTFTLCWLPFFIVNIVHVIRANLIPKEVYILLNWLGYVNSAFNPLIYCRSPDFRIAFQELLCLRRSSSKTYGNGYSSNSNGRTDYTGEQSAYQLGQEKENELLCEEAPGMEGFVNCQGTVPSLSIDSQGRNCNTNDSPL
Description: Displacement of [3H]DHA from beta2 adrenergic receptor in rat lung muscle by competitive binding assay

Sequence of Beta-1 adrenergic receptor (Rattus norvegicus) (P18090 whole entry, looked up): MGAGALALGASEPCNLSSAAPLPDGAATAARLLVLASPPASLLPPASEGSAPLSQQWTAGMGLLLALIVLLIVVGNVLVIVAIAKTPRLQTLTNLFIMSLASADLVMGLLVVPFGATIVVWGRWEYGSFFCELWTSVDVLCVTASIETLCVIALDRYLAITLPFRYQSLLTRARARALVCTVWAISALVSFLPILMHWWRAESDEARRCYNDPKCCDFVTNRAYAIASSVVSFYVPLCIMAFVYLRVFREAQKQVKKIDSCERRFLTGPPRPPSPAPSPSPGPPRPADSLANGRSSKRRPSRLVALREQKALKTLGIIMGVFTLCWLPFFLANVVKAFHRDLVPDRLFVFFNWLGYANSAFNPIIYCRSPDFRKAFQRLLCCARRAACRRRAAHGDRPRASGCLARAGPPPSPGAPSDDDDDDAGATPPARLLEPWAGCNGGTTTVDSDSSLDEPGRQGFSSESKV

Row | Compound | Kapp [1] [µM] | Ratio [2] | Kapp [3] [µM]
1 | CC(C)NCC(O)COc1cccc2[nH]ccc12 (racemic) | 0.014 | – | –
2 | COc1ccc(CCNCC(O)COc2ccc(NC(C)=O)cc2)cc1OC (centres undefined) | 7 | 32 | 224
3 | CC(=O)Nc1ccccc1OCC(O)CNCCc1ccc(O)cc1 (centres undefined) | 2.1 | 7.6 | 16
4 | CCCCCC(=O)Nc1ccc(OCC(O)CNCCc2ccc(O)cc2)cc1 (centres undefined) | 3.9 | 10 | 39
5 | CC(C)NCC(O)COc1ccccc1 (centres undefined) | 0.24 | 1.5 | 0.37
6 | COc1ccc(CCNCC(O)COc2ccccc2)cc1OC (centres undefined) | 0.38 | 4.7 | 1.8
7 | CCCCCC(=O)Nc1ccc(OCC(O)CNC(C)C)cc1 (centres undefined) | 2.2 | 16 | 34
8 | O=C1CCCc2c(OCC(O)CNCCc3ccc(O)cc3)cccc21 (centres undefined) | 0.37 | 1.5 | 0.56
9 | CCCCCC(=O)Nc1ccc(OCC(O)CNCCc2ccc(OC)c(OC)c2)c(Cl)c1 (centres undefined) | 0.32 | 53 | 17
10 | C=CCc1ccccc1OCC(O)CNC(C)C (racemic) | 0.0077 | 2.6 | 0.02
11 | CCCCCC(=O)Nc1ccc(OCC(O)CNCCc2ccc(O)cc2)c(Cl)c1 (centres undefined) | 2.7 | 5 | 14
12 | CC(C)(C)NCC(O)COc1cccc2c1CCCC2=O (centres undefined) | 0.015 | 1.1 | 0.017
13 | CC(=O)Nc1ccc(OCC(O)CNCCc2ccc(O)cc2)cc1 (centres undefined) | 18 | 4.9 | 88
14 | Oc1ccc(CCNCC(O)COc2ccccc2)cc1 (centres undefined) | 0.7 | 0.3 | 0.24
15 | CC(=O)Nc1ccc(OCC(O)CNC(C)C)cc1 (racemic) | 18 | 17 | 313
16 | CCCCCC(=O)Nc1ccc(OCC(O)CNCCc2ccc(OC)c(OC)c2)cc1 (centres undefined) | 0.35 | 77 | 27
17 | C=CCc1ccccc1OCC(O)CNCCc1ccc(O)cc1 (centres undefined) | 0.2 | 1.3 | 0.27
